Drawing on patent publication US11174268B2, “Benzenesulfonamide compouds and their use as therapeutic agents” (Xenon Pharmaceuticals Inc., priority 2016, dated 2021), this text covers IC50 for 16 compounds.

Data set [1] deals with T1, NaV1.6 (Homo sapiens (Human), UniProt Q9UQD0). The data set is described as follows: Sodium Influx Assay (Flux), NaV1.6.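 Also: Tetracycline-induced cells, compounds applied for one hour at room temperature with modulators holding channels open, IC50 from percent inhibition of sodium influx.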 It is filed as cell-based. Particulars: Trex HEK293 cells, ANG2 dye, inactivated state.
The target in data set [2] is T2, NaV1.1 (Homo sapiens (Human), UniProt P35498). Nature of the data set: Electrophysiological Assay (EP), patch voltage clamp, NaV1.1.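 Also: sodium current block measured at ambient temperature, holding at fully inactivating potential, 20 ms repolarization to −150 mV before test pulse, versus 0.5% DMSO control currents.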 The data set is classed as cell-based. The settings on record: HEK-293 cells, whole-cell patch clamp. In general terms: The patch-clamp technique gives a direct electrical read-out from membranes.
A further data set deals with NaV1.5 (Homo sapiens (Human), UniProt Q14524). Nature of the data set: Sodium Influx Assay (Flux), NaV1.5. Particulars: read-out: Flux NaV1.5 IC50; Trex HEK293 cells, ANG2 dye, inactivated state.
Data set [3] deals with T2, NaV1.1. The data set is described as follows: Sodium Influx Assay (Flux), NaV1.1.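 Also: channels co-expressed with human β1 subunit and held open by modulators, cells exposed to compounds for one hour at room temperature, IC50 from percent inhibition of influx.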 It is filed as cell-based. The settings on record: Trex HEK293 cells, ANG2 dye, inactivated state.
Data set [4] concerns the target T1, NaV1.6. Nature of the data set: Electrophysiological Assay (EP), patch voltage clamp, NaV1.6.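 Also: sodium current recorded at ambient temperature, channels held inactivated then briefly repolarized to −150 mV for 20 ms before a test pulse, control currents in 0.5% DMSO.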 It is filed as cell-based. The settings on record: HEK-293 cells, whole-cell patch clamp.

Sequence of NaV1.5 (Q14524 other isoform, or with tags, fused parts or gaps): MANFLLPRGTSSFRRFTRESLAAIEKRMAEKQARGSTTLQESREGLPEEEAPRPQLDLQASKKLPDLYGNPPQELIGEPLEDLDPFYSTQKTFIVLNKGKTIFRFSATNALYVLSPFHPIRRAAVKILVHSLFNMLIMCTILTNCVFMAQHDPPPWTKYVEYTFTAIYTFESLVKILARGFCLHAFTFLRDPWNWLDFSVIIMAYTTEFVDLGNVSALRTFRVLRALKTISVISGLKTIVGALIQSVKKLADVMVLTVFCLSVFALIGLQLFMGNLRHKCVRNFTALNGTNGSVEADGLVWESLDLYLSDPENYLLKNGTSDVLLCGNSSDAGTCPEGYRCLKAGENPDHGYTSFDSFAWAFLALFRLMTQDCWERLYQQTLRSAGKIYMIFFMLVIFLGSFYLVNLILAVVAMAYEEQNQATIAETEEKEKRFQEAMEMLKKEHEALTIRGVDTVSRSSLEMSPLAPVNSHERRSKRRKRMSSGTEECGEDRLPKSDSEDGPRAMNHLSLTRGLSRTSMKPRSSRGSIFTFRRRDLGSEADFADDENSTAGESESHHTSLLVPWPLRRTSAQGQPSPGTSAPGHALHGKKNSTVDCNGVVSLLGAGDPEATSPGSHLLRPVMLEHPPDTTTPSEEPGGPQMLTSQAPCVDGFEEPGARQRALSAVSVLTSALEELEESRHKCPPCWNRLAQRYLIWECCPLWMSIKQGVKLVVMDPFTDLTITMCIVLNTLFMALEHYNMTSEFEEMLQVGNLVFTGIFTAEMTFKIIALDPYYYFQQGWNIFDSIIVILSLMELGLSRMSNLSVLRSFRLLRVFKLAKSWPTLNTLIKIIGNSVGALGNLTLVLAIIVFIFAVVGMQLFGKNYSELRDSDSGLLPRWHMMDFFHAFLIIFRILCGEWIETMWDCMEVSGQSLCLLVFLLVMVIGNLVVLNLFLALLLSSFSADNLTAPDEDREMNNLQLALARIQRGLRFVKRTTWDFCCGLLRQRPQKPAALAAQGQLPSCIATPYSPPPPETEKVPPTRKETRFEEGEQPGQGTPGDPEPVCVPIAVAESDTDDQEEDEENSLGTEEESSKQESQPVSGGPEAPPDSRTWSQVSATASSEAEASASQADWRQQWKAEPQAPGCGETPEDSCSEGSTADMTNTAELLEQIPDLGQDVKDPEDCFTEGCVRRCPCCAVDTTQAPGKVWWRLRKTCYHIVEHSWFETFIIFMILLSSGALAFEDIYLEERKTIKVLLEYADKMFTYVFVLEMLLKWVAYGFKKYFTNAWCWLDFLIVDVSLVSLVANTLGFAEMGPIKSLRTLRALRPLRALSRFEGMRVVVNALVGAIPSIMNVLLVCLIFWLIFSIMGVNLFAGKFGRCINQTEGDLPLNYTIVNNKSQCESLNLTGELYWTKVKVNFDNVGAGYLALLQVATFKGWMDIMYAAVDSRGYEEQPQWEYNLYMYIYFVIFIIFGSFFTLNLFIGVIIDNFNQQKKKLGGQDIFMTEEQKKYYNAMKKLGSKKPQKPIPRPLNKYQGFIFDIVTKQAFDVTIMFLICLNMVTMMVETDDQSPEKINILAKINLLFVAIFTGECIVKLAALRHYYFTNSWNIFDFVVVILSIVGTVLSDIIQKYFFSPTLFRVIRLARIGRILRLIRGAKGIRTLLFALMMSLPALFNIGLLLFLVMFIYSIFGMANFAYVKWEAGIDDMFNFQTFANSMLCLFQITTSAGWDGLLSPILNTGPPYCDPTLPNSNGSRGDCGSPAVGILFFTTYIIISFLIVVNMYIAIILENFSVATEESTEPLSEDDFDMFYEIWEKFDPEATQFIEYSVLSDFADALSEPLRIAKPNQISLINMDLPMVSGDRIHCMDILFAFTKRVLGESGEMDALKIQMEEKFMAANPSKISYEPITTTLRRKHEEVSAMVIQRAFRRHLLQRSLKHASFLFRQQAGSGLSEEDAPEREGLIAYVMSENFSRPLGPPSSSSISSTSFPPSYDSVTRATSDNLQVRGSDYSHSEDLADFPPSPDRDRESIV
T1 sequence (Q9UQD0 whole entry): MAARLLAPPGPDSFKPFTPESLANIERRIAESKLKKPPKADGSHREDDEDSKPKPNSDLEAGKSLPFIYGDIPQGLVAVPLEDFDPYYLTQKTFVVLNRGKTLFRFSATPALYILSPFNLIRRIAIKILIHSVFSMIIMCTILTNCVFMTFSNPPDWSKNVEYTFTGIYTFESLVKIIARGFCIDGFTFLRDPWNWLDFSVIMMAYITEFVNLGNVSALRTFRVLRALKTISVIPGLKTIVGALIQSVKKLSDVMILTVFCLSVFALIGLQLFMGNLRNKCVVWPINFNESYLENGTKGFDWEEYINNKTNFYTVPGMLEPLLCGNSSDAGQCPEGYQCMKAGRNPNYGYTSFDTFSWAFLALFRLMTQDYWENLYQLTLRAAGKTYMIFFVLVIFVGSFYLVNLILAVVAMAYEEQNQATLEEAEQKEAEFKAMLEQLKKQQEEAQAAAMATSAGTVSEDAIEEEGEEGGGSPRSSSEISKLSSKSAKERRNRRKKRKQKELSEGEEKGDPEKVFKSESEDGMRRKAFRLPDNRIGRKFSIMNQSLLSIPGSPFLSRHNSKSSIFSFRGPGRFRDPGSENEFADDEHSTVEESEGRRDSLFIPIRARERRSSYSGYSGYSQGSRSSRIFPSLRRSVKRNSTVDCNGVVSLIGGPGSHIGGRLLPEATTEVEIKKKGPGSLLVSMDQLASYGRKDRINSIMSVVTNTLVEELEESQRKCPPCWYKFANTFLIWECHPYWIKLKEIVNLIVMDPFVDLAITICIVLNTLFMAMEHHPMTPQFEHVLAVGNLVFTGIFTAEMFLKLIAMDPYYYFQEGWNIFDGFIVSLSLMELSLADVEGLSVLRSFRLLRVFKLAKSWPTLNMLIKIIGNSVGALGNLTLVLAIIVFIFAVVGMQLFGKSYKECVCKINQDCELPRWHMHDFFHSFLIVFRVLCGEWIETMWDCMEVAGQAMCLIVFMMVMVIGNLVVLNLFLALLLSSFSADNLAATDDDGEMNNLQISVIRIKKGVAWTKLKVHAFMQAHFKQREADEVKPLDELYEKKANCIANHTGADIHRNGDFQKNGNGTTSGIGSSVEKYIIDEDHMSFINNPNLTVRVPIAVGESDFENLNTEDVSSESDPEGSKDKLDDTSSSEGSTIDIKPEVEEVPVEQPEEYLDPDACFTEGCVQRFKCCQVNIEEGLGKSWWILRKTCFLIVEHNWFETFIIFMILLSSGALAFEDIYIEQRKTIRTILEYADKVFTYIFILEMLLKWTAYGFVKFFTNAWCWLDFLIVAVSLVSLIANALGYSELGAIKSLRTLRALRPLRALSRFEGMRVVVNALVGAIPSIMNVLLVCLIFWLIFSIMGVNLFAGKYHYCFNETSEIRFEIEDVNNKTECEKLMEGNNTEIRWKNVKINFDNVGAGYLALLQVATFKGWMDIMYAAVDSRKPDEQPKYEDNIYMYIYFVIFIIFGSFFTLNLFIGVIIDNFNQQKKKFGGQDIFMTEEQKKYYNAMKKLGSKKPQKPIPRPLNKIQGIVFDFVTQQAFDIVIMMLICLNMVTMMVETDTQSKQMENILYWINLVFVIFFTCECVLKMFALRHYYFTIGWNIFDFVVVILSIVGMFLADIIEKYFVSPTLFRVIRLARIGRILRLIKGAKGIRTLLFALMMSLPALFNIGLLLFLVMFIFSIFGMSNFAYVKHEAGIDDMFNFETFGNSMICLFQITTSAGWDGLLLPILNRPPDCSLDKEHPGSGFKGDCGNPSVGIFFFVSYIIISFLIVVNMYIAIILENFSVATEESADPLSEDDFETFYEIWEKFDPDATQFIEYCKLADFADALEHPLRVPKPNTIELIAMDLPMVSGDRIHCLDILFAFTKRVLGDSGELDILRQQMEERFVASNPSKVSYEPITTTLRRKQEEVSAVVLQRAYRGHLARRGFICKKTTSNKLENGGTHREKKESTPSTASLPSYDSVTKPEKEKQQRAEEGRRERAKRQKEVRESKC

Turning to `O=S(=O)(Nc1nccs1)c1cc(Cl)c(NC2(c3ccccc3)CC2)cc1F` [Example 43, 5-chloro-2-fluoro-4-((1-phenylcyclopropyl)amino)-N-(thiazol-2-yl)benzenesulfonamide], the half-maximal inhibitory concentration (IC50) at NaV1.6 [1] came to 0.191 µM; at NaV1.1 [2], 4.1 µM; on NaV1.5, 11.1 µM; against NaV1.1 [3], 2.14 µM; against NaV1.6 [4], 0.028 µM.

`O=S(=O)(Nc1nccs1)c1cc(Cl)c(NC2(c3ccc(F)cc3)CC2)cc1F` [Example 44, 5-chloro-2-fluoro-4-((1-(4-fluorophenyl)cyclopropyl)amino)-N-(thiazol-2-yl)benzenesulfonamide]: the half-inhibitory concentration (IC50) against NaV1.6 [1] came to 0.347 µM; at NaV1.1 [2], 2.09 µM; at NaV1.5, 30 µM; at NaV1.1 [3], 1.27 µM; on NaV1.6 [4] it was 0.13 µM.

In the case of `CC[C@H](Nc1cc(F)c(S(=O)(=O)Nc2nccs2)cc1Cl)c1ccccc1F` [Example 47, (S)-5-chloro-2-fluoro-4-((1-(2-fluorophenyl)propyl)amino)-N-(thiazol-2-yl)benzenesulfonamide], the IC50 against NaV1.6 [1] is 0.089 µM; against NaV1.1 [2], 0.114 µM; at NaV1.5, 6.52 µM; against NaV1.1 [3], 0.816 µM; at NaV1.6 [4] it was 0.01 µM.

`C[C@H](Nc1cc(F)c(S(=O)(=O)Nc2nccs2)cc1Cl)c1cccc(F)c1` [Example 49, (S)-5-chloro-2-fluoro-4-((1-(3-fluorophenyl)ethyl)amino)-N-(thiazol-2-yl)benzenesulfonamide]: the IC50 against NaV1.6 [1] is 0.232 µM; against NaV1.1 [2], 0.26 µM; at NaV1.5, 4.75 µM; on NaV1.1 [3], 0.888 µM; on NaV1.6 [4], 0.019 µM.

For `CC[C@H](Nc1cc(F)c(S(=O)(=O)Nc2nccs2)cc1Cl)c1ccccc1C` [Example 54, (S)-5-chloro-2-fluoro-N-(thiazol-2-yl)-4-((1-(o-tolyl)propyl)amino)benzenesulfonamide], the IC50 against NaV1.6 [1] is 0.265 µM; on NaV1.1 [2], 1.02 µM; at NaV1.5 it was 13.5 µM; against NaV1.1 [3] it was 3.24 µM; on NaV1.6 [4] it was 0.025 µM.

`CC(Cc1cccnc1)Nc1cc(F)c(S(=O)(=O)Nc2nccs2)cc1Cl` (centres unmarked) [Example 56, 5-chloro-2-fluoro-4-((1-(pyridin-3-yl)propan-2-yl)amino)-N-(thiazol-2-yl)benzenesulfonamide]: the IC50 was found to be 0.949 µM at NaV1.6 [1]; 1.42 µM at NaV1.1 [2]; 30 µM at NaV1.5; 4.03 µM against NaV1.1 [3]; 0.292 µM at NaV1.6 [4].

For the compound `O=S(=O)(Nc1cccc(F)n1)c1cc(Cl)c(NCc2cccc3ccncc23)cc1F` [Example 62, 5-chloro-2-fluoro-N-(6-fluoropyridin-2-yl)-4-((isoquinolin-8-ylmethyl)amino)benzenesulfonamide], the IC50 at NaV1.6 [1] was found to be 0.138 µM; at NaV1.1 [2] it was 3.1 µM; on NaV1.5 it was 30 µM; against NaV1.1 [3] it was 17.3 µM; against NaV1.6 [4] it was 0.052 µM.

As for `CN(C)CC(Nc1cc(F)c(S(=O)(=O)Nc2nccs2)cc1Cl)c1ccccc1` (centres unmarked) [Example 63, 5-Chloro-4-((2-(dimethylamino)-1-phenylethyl)amino)-2-fluoro-N-(thiazol-2-yl)benzenesulfonamide 2,2,2-trifluoroacetate], the 50% inhibitory concentration (IC50) on NaV1.6 [1] amounted to 0.392 µM; against NaV1.1 [2] it was 10 µM; on NaV1.5, 30 µM; against NaV1.1 [3], 14.1 µM; on NaV1.6 [4] it was 0.066 µM.

Take `CN(C)C[C@@H](Nc1cc(F)c(S(=O)(=O)Nc2nccs2)cc1Cl)c1ccccc1` [Example 64, (S)-5-chloro-4-((2-(dimethylamino)-1-phenylethyl)amino)-2-fluoro-N-(thiazol-2-yl)benzenesulfonamide 2,2,2-trifluoroacetate]: the IC50 was 0.197 µM against NaV1.6 [1]; 10 µM on NaV1.1 [2]; 30 µM on NaV1.5; 14.5 µM against NaV1.1 [3]; 0.085 µM on NaV1.6 [4].

On to `CN(C)C[C@H](Nc1cc(F)c(S(=O)(=O)Nc2nccs2)cc1Cl)c1ccccc1` [Example 65, (R)-5-chloro-4-((2-(dimethylamino)-1-phenylethyl)amino)-2-fluoro-N-(thiazol-2-yl)benzenesulfonamide 2,2,2-trifluoroacetate], for which the IC50 against NaV1.6 [1] was found to be 1.02 µM; at NaV1.1 [2] it was 10 µM; at NaV1.5, 30 µM; against NaV1.1 [3] it was 2.23 µM; against NaV1.6 [4], 0.087 µM.

`O=S(=O)(Nc1nccs1)c1cc(Cl)c(N[C@@H](CN2CCC2)c2ccccc2)cc1F` [Example 66, (R)-4-((2-(azetidin-1-yl)-1-phenylethyl)amino)-5-chloro-2-fluoro-N-(thiazol-2-yl)benzenesulfonamide 2,2,2-trifluoroacetate]: the IC50 amounted to 1.01 µM against NaV1.6 [1]; 10 µM against NaV1.1 [2]; 30 µM at NaV1.5; 0.908 µM against NaV1.1 [3]; 1.11 µM against NaV1.6 [4].

`O=S(=O)(Nc1nccs1)c1cc(Cl)c(N[C@H](CN2CCC2)c2ccccc2)cc1F` [Example 67, (S)-4-((2-(azetidin-1-yl)-1-phenylethyl)amino)-5-chloro-2-fluoro-N-(thiazol-2-yl)benzenesulfonamide 2,2,2-trifluoroacetate]: the IC50 worked out at 0.426 µM at NaV1.6 [1]; 10 µM on NaV1.1 [2]; 30 µM on NaV1.5; 10.6 µM against NaV1.1 [3]; 0.119 µM at NaV1.6 [4].

As for `O=S(=O)(Nc1nccs1)c1cc(Cl)c(N[C@H](CN2CCCC2)c2ccccc2)cc1F` [Example 70, (S)-5-chloro-2-fluoro-4-((1-phenyl-2-(pyrrolidin-1-yl)ethyl)amino)-N-(thiazol-2-yl)benzenesulfonamide], the IC50 is 0.181 µM at NaV1.6 [1]; 10 µM at NaV1.1 [2]; 30 µM at NaV1.5; 30 µM against NaV1.1 [3]; 0.036 µM at NaV1.6 [4].

`O=S(=O)(Nc1cccc(F)n1)c1cc(Cl)c(N[C@H](CN2CCCC2)c2ccccc2)cc1F` [Example 72, (S)-5-chloro-2-fluoro-N-(6-fluoropyridin-2-yl)-4-((1-phenyl-2-(pyrrolidin-1-yl)ethyl)amino)benzenesulfonamide 2,2,2-trifluoroacetate]: the IC50 is 7.11 µM against NaV1.6 [1]; 10 µM on NaV1.1 [2]; 30 µM at NaV1.5; 30 µM against NaV1.1 [3]; 0.955 µM against NaV1.6 [4].

Consider `O=S(=O)(Nc1cscn1)c1cc(Cl)c(N[C@H](CN2CCCC2)c2ccccc2)cc1F` [Example 73, (S)-5-chloro-2-fluoro-4-((1-phenyl-2-(pyrrolidin-1-yl)ethyl)amino)-N-(thiazol-4-yl)benzenesulfonamide], for which the 50% inhibitory concentration (IC50) was 3.87 µM at NaV1.6 [1]; 10 µM on NaV1.1 [2]; 30 µM on NaV1.5; 23.1 µM on NaV1.1 [3]; 1.14 µM against NaV1.6 [4].

Turning to `O=S(=O)(Nc1nccs1)c1cc(Cl)c(NC(CN2CCOCC2)c2ccccc2)cc1F` (centres unmarked) [Example 74, 5-chloro-2-fluoro-4-((2-morpholino-1-phenylethyl)amino)-N-(thiazol-2-yl)benzenesulfonamide 2,2,2-trifluoroacetate], the IC50 on NaV1.6 [1] came to 0.521 µM; on NaV1.1 [2], 1.85 µM; at NaV1.5, 30 µM; on NaV1.1 [3] it was 2.52 µM; against NaV1.6 [4], 0.052 µM.

What is called IC50 is the concentration at which inhibition is half-maximal.
